The values below come from ChEMBL document CHEMBL1770079, “Discovery of small molecule human FPR1 receptor antagonists” (Bioorg Med Chem Lett, 2011).

Holding throughout (format): functional
For test [1], the target named is T1, fMet-Leu-Phe receptor (Homo sapiens, UniProt P21462).
T1 sequence (P21462 whole entry): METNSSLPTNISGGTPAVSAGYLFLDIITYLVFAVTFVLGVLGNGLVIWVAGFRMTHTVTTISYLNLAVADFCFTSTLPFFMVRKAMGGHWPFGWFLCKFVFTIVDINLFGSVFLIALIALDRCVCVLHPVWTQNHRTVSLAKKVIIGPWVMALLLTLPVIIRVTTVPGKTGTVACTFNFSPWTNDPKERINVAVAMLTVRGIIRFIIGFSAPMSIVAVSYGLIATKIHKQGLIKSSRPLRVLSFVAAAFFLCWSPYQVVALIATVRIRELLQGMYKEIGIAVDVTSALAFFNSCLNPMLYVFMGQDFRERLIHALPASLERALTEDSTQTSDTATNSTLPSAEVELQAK
The test is described as follows: (§1) Intrinsic activity at FPR1 in human neutrophils assessed as increase in calcium mobilization by FLIPR assay relative to fMLF.

Test [2] deals with T1, fMet-Leu-Phe receptor. The test is described as follows: Antagonist activity at FPR1.
Test [3] has as its target T2, fMet-Leu-Phe receptor (Homo sapiens) (UniProt P21462).
T2 sequence (whole entry): T1 sequence (P21462 whole entry)
Put plainly: Antagonist activity at FPR1 in human neutrophils assessed as inhibition of fMLF-stimulated calcium mobilization at 50 uM by FLIPR assay. (In general: Calcium flux is commonly read through the fluorescence of an indicator in the cells.)

The target in test [4] is T2, fMet-Leu-Phe receptor (Homo sapiens). Put plainly: (§2) Agonist activity at FPR1 in human neutrophils assessed as increase in calcium mobilization by FLIPR assay. Also on record: concentration or dose not given beside the values. The note with it: concentration not given here.
Test [5] addresses T1, fMet-Leu-Phe receptor. The description is as §2.
The target in test [6] is T2, fMet-Leu-Phe receptor (Homo sapiens). The description is as §1.

In general, IC50 refers to the point on the concentration scale where inhibition reaches its midpoint. The term inhibition denotes how much of the control response was suppressed. What is called EC50 is the concentration that produces a half-maximal response. Usually Ki stands for a measure of affinity in units of concentration, obtained from inhibition or displacement.

Regarding `CSCCC(NC(=O)c1ccccc1)c1nc2ccccc2[nH]1` (stereo not drawn), the 50% inhibitory concentration (IC50) on fMet-Leu-Phe receptor [1] was 5010 nM.

`CC(C)C(C(=O)O)N1C(=O)/C(=C2/C(=O)N(C)c3ccccc32)SC1=S` (stereo not drawn) gave an IC50 against fMet-Leu-Phe receptor [2] of 5010 nM.

Turning to `COc1ccccc1C(=O)NC(CCSC)c1nc2ccccc2[nH]1` (stereo not drawn), in test [3], the inhibition was under 25%.

Take `Cc1cccc(C)c1NC(=O)C(c1ccccc1)N(C)C(=O)c1ccccc1O` (stereo not drawn): at fMet-Leu-Phe receptor [1], the IC50 was 10000 nM.

With `CSCCC(NC(=O)C1CCCCC1)c1nc2ccccc2[nH]1` (stereo not drawn), at fMet-Leu-Phe receptor [1], the IC50 is 2510 nM.

In the case of `Cc1cccc(C)c1NC(=O)C(NC(=O)c1ccccc1O)c1cn(C)cn1` (stereo not drawn), the IC50 at fMet-Leu-Phe receptor [1] is 1580 nM.

Consider `CCOc1ccc2oc(C(=O)N[C@H](CSC)c3nc4ccccc4[nH]3)c(C)c2c1`, for which, at fMet-Leu-Phe receptor [1], the IC50 is 631 nM.

As to `CCOc1ccc2oc(C(=O)NC(CCSC)c3nc4ncccc4[nH]3)c(C)c2c1` (stereo not drawn), the inhibition in test [4] is under 25%.

Take `CCOc1ccc2oc(C(=O)NC(CCSC)c3nc4cnccc4[nH]3)c(C)c2c1` (stereo not drawn): on fMet-Leu-Phe receptor [5], the EC50 was 1580 nM. Further, the Intrinsic activity in test [6] came to 0.8. In addition, at fMet-Leu-Phe receptor [1], the IC50 was 1000 nM.

In the case of `CSCCC(NC(=O)c1sccc1Cl)c1nc2ccccc2[nH]1` (stereo not drawn), at fMet-Leu-Phe receptor [1], the IC50 was 2000 nM.

For `CCOc1ccc2oc(C(=O)NC(CCSC)c3nc4ncncc4[nH]3)c(C)c2c1` (stereo not drawn), the inhibition in test [4] was under 25%. Besides, the IC50 at fMet-Leu-Phe receptor [1] was 5010 nM.

For `CCC[C@H](NC(=O)c1oc2ccc(OCC)cc2c1C)c1nc2ccccc2[nH]1`, the IC50 on fMet-Leu-Phe receptor [1] was 1000 nM.

Take `Cc1cccc(C)c1NC(=O)C(NC(=O)c1nc2ccccc2[nH]c1=O)c1ccc(Cl)cc1` (stereo not drawn): the IC50 on fMet-Leu-Phe receptor [1] is 2510 nM.

For `CSCCC(NC(=O)Cc1ccccc1)c1nc2ccccc2[nH]1` (stereo not drawn), in test [3], the inhibition is under 25%.

Take `CSCCC(NC(=O)c1ccccc1)c1nc2ccccc2n1Cc1ccc(C#N)cc1` (stereo not drawn): the inhibition in test [4] is under 25%. Also, the IC50 on fMet-Leu-Phe receptor [1] was 316 nM.

The compound `CCc1cc2c(=O)c(-c3nc4ccccc4n3C)c(C)oc2cc1OC(C)=O` showed a Ki at fMet-Leu-Phe receptor [2] of 100 nM.

As for `Cc1ccccc1C(=O)NC(C(=O)Nc1c(C)cccc1C)c1ccc(Cl)cc1` (stereo not drawn), the inhibition in test [3] was under 25%.

As to `Cc1cccc(C(NC(=O)c2ccccc2O)C(=O)Nc2c(C)cccc2C)c1C` (stereo not drawn), the IC50 at fMet-Leu-Phe receptor [1] was 79.4 nM.

On to `COc1ccccc1C(=O)NC(C(=O)Nc1c(C)cccc1C)c1ccc(Cl)cc1` (stereo not drawn), for which, in test [3], the inhibition is under 25%.
